{"source": "patent US9241962B2", "about": "“Water extract of Antrodia camphorata for immunostimulatory effect and preparation method thereof” (Kaohsiung Medical University, priority 2009, dated 2016)", "assay_type_in_all_cases": "cell-based, human", "key": {"DCs [1]": {"test_system": "DCs", "experiment": "Inhibition of MAPKs and PI3K/Akt activation before ACW stimulation of DCs", "settings": "inhibitor 25 μM for 2 hours before ACW; for IL-12 production of DCs induced by ACW after inhibitor pretreatment: FIG. 13(B)", "method": "To examine the signal transduction pathways involved in the effects of ACW on DC maturation, DCs were pretreated at 37° C. with ERK inhibitor PD98059 (25 μM), JNK inhibitor SP600125 (25 μM), p38 MAPK inhibitor SB203580 (25 μM) or PI3K/Akt inhibitor LY294002 (25 μM) for 2 hours before stimulation with ACW. After 2 days, phenotyping characteristics of DCs and IL-12 production in the supernatants of DCs were analyzed."}, "DCs [2]": {"test_system": "DCs", "experiment": "Polymyxin B test of CD86 and HLA-DR expression on induced DCs", "settings": "DCs treated with polymyxin B, then LPS or ACW; FIG. 7", "method": "Polymyxin B is an antibiotic used for inactivating potential LPS contamination when evaluating the activity of different agents on immune cells. Therefore, whether polymyxin B blocks the phenotypic maturation of ACW-induced DCs is determined. […] Accordingly, ACW is able to stimulate the maturation of DCs without LPS contamination."}, "DCs [3]": {"test_system": "DCs", "experiment": "IL-12 production in culture supernatants of stimulated DCs", "parameters": "unit not given here", "settings": "LPS; PBS 235.53±2.54; FIG. 9", "method": "The preparation method of DCs was mainly prepared and modified from Lin et al, 2006. First, peripheral blood mononuclear cells (PBMCs) were obtained from 12 healthy donors by centrifugation with the Ficoll-Hypaque (Amersham Bioscience, Uppsala, Sweden) density gradient centrifugation. PBMCs were cultured in RPMI 1640 medium supplemented with 10% fetal calf serum, 1 mM L-glutamin, 100 μg/ml streptomycin and 100 U/ml penicillin for 2 hours. The nonadherent cells were removed, and the T cells were purified by nylon wool separation, as the source of mononuclear T lymphocytes. T cells were loaded into the column and the eluted nonadherent cell fraction was rich in T cells. As determined by FACS, the resulting cell population was 80% T cells with a high expression of CD3. The adherent cells were cultured for 6 days in RPMI 1640 medium with 50 ng/ml of granulocyte-macrophage colony-stimulating factor (GM-CSF) and interleukin-4 (IL-4). […] ImDCs were further treated with phosphate buffered saline (PBS), LPS (100 ng/ml) and different doses of ACW for an additional 2 days and then assessed by flow cytometry.\nLevels of IL-12, IL-10, IFN-γ and IL-4 in the culture supernatants from DCs or T cells were evaluated by using highly sensitive human cytokine assay kits (R&D Systems, Minneapolis, USA) according to the manufacturer's instructions."}}}
{"compound": "C[S+]([O-])c1ccc(-c2nc(-c3ccncc3)c(-c3ccc(F)cc3)[nH]2)cc1", "note": "(centres unmarked) [SB203580]", "values": [{"measurement": "CD86 expression of the ACW-treated DCs after inhibitor pretreatment", "setting": "DCs [1]; FIG. 13(A)", "result": "inhibit CD86 expression"}, {"measurement": "IL-12 production of DCs induced by ACW after inhibitor pretreatment", "setting": "DCs [1]", "result": "significantly blocks the up-regulation of IL-12 production"}]}
{"compound": "COc1cccc(-c2cc(=O)c3ccccc3o2)c1N", "note": "[PD98059]", "values": [{"measurement": "IL-12 production of DCs induced by ACW after inhibitor pretreatment", "setting": "DCs [1]", "result": "upregulates the IL-12 production"}]}
{"compound": "lipopolysaccharide [LPS]", "values": [{"measurement": "expressions of CD86 and HLA-DR after polymyxin B treatment in advance", "setting": "DCs [2]", "result": "significantly inhibits the expressions of CD86 and HLA-DR"}, {"measurement": "concentration of IL-12 produced by DCs", "setting": "DCs [3]", "result": 698.45}]}
